Experimental data: patent US20090057619A1, “Compositions and Visual Perception Changing Methods” (priority 2007, published 2009)
Blank lines part the entries; values can stand above or below the compound they belong to.

Assays:
[1] = cited from earlier work; for reported pKa: @ 25° C.
[2] = pKa of BTB estimated by spectrophotometric titration in water and in model dishwashing detergent; format: physicochemical
Text: Example of color change—pKa measurements—As outlined in the methods described by Brode (Journal of the American Chemical Society, Vol. 46, pp 581-596, 1924) and Puschett et al (Talanta, Vol. 38, Issue #3, pp 335-338, 1991), the pKa of bromothymol blue (BTB) is estimated in water and a model dishwashing detergent containing approximately 30% surfactant (combination of alkylethoxysulfonate and amine oxide). In the absence of detergent, stock solutions of BTB (6-20 ppm) are first adjusted to a pH of 11-12 and titrated with 1% HCl down to a pH of 4.0. After each pH adjustment the absorbance peak at 617 nm (Abs1) is measured and pKa estimated from the abscissa of the point of inflection. In similar fashion, BTB is added at a 60 ppm level to the dishwashing detergent, diluted 10-100 fold with deionized water and titrated with 1% HCl.

[3] = Ratio of absorbances Abs1:Abs2 as a function of product dilution, pH kept at 9.0; format: physicochemical; conditions: pH 9.0; for Abs1:Abs2: no detergent
Description: Example of color change—pH is kept constant upon dilution—As shown in Tables 1 and 2 below, bromothymol blue (BTB) is assessed in representative nil-dye versions of representative hand dishwashing products: a) Dawn® Bleach Alternative, b) Dreft®, and c) nil-dye Fairy® Liquid. In a typical procedure, BTB is directly added to the hand dishwashing detergent (60 ppm BTB) and the visible spectrum monitored (λ=400-700 nm) as a function of product dilution with deionized water. After each dilution, the detergent solution is adjusted to pH 9.0 with 0.1% NaOH and the ratio of absorbances at λmax=615-635 nm (Abs1) and λmax=395-435 nm (Abs2) measured. For comparison, a 60 ppm aqueous solution of BTB is prepared and sequentially diluted with deionized water, the pH again adjusted to 9.0 after each dilution (Table 2).
For the dishwashing detergents containing BTB, the ratio Abs1:Abs2 increases upon dilution, the most significant increase occurring at product concentrations ≦2.5%. […] Absorption measurements for Tables 1 and 2 are made on an HP UV/Visibile 8453 Spectrophotometer (Hewlett-Packard).

Compound: Cc1cc(C2(c3cc(C)c(O)c(Br)c3)OS(=O)(=O)c3ccccc32)cc(Br)c1O [bromocresol purple]
reported pKa [1]: 6.3

Compound: Cc1cc(C2(c3cc(C)c(O)c(Br)c3C)OS(=O)(=O)c3ccccc32)c(C)c(Br)c1O [bromoxylenol blue]
reported pKa [1]: 7.0

pKa ([2]; model dishwashing detergent diluted with deionized water, detergent conc 1 %, model dishwashing detergent (approx. 30% surfactant)): 8.2
pKa ([2]; model dishwashing detergent diluted with deionized water, detergent conc 5 %, model dishwashing detergent (approx. 30% surfactant)): 9
pKa ([2]; model dishwashing detergent diluted with deionized water, detergent conc 10 %, model dishwashing detergent (approx. 30% surfactant)): 9.4
pKa ([2]; water without detergent, detergent conc 0 % (water, absence of detergent)): 7.3
Abs1:Abs2 ([3]; BTB in water 0.3 ppm (product conc. 0.5 %)): 5.00
Abs1:Abs2 ([3]; BTB in water 0.6 ppm (product conc. 1 %)): 4.68
Abs1:Abs2 ([3]; BTB in water 1.2 ppm (product conc. 2 %)): 4.14
Abs1:Abs2 ([3]; BTB in water 2.4 ppm (product conc. 4 %)): 4.59
Abs1:Abs2 ([3]; BTB in water 3.0 ppm (product conc. 5 %)): 4.37
Abs1:Abs2 ([3]; BTB in water 3.6 ppm (product conc. 6 %)): 4.52
Abs1:Abs2 ([3]; BTB in water 4.8 ppm (product conc. 8 %)): 4.35
Abs1:Abs2 ([3]; BTB in water 6.0 ppm (product conc. 10 %)): 4.47
Abs1:Abs2 ([3]; BTB in water 7.2 ppm (product conc. 12 %)): 4.31
Abs1:Abs2 ([3]; BTB in water 9.6 ppm (product conc. 16 %)): 4.29
Abs1:Abs2 ([3]; BTB in water 10.8 ppm (product conc. 18 %)): 4.23
Abs1:Abs2 ([3]; BTB in water 12.0 ppm (product conc. 20 %)): 4.16
change in the ratio Abs1:Abs2 upon dilution ([3]; dilution with deionized water): no significant change
Compound: Cc1c(C2(c3cc(C(C)C)c(O)c(Br)c3C)OS(=O)(=O)c3ccccc32)cc(C(C)C)c(O)c1Br [BTB, bromothymol blue]
reported pKa [1]: 7.1
pKa, literature value [1]: 7.1

Compound: O=S1(=O)OC(c2cc(Br)c(O)c(Br)c2)(c2cc(Br)c(O)c(Br)c2)c2ccccc21 [bromophenol blue]
reported pKa [1]: 4.0

Compound: Cc1c(C2(c3cc(Br)c(O)c(Br)c3C)OS(=O)(=O)c3ccccc32)cc(Br)c(O)c1Br [bromocresol green]
reported pKa [1]: 4.7
